Laboratory results: paper PMC5011342, “A high throughput drug screening assay to identify compounds that promote oligodendrocyte differentiation using acutely dissociated and purified oligodendrocyte precursor cells” (BMC Research Notes, 2016)
Read-outs that look alike come from different tables or passages of the source.

What was measured:
[1] = system: acutely dissociated and purified rat OPCs; test: Acute OL differentiation assay (MBP expression/cell, immunofluorescent image quantification); assay type: cell-based; conditions: sheet "All OLga data"; for activation at 2 µM / activation at 10 µM / activation at 0.08 µM / activation at 0.4 µM: Rattus norvegicus
Outline: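 Oligodendrocyte precursor cells were enriched from P6-P7 Sprague–Dawley rat brains by immunopanning (RAN-2 and GalC depletion, O4 selection), plated at 5000 cells/well in serum-free, mitogen-free differentiation media on PDL/laminin 96-well view plates, centrifuged at 200×g, and pre-incubated 1–2 h before test compounds were added in quadruplicate. On DIV4, cells were fixed, stained for MBP and DAPI, imaged automatically, and MBP expression per cell was quantified.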

expanded OPCs = test: cells; conditions: for viability at 0.1 µM / viability at 1 µM / viability at 10 µM: Rattus norvegicus, 72 h
Outline: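 Expanded OPCs seeded at 10,000 cells/well in differentiation media, then exposed to NCC library compounds at 10, 1 and 0.1 µM (quadruplicate, 0.1% DMSO) for three days. Viability read as alamarBlue fluorescence (560/590 nm) after 4 h at 37 °C; tunicamycin 5 ng/ml served as toxicity control.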

[2] = 2 uM test compound, relative to quetiapine, read-out: OL differentiation, 2 uM (% Quet)
[3] = 10 uM test compound, relative to quetiapine, read-out: OL differentiation, 10 uM (% Quet)
[4] = test compound at 2 uM, NCC library screen, relative to quetiapine, read-out: 2 uM (% Quet)
[5] = test compound at 10 uM, NCC library screen, relative to quetiapine, read-out: 10 uM (% Quet)
[6] = read-out: 0.1 µM (% DMSO), alamarBlue viability of expanded OPCs, compound at 0.1 µM, sheet All Tox data
[7] = read-out: 1 µM (% DMSO), alamarBlue viability of expanded OPCs, compound at 1 µM, sheet All Tox data
[8] = read-out: 10 µM (% DMSO), alamarBlue viability of expanded OPCs, compound at 10 µM, sheet All Tox data
[9] = alamarBlue viability of expanded OPCs, compound at 0.1 µM, relative to DMSO control
[10] = alamarBlue viability of expanded OPCs, compound at 1 µM, relative to DMSO control
[11] = alamarBlue viability of expanded OPCs, compound at 10 µM, relative to DMSO control
[12] = test compound at 0.4 uM, MBP expression relative to quetiapine, NCC library screen, read-out: 0.4 uM (% Quet)
[13] = test compound at 2 uM, MBP expression relative to quetiapine, NCC library screen, read-out: 2 uM (% Quet)
[14] = read-out: 0.1 µM (% DMSO), alamarBlue viability, NCC library compound at 0.1 µM, sheet "All Tox data"
[15] = read-out: 1 µM (% DMSO), alamarBlue viability, NCC library compound at 1 µM, sheet "All Tox data"
[16] = read-out: 10 µM (% DMSO), alamarBlue viability, NCC library compound at 10 µM, sheet "All Tox data"

## COc1cc(C[C@@H](CO)[C@H](CO)Cc2ccc(O)c(OC)c2)ccc1O [Secoisolariciresinol]
[1]; test compound at 2 uM, NCC library screen, relative to quetiapine
  2 uM (% Quet): -3.9 % Quet
[1]; test compound at 10 uM, NCC library screen, relative to quetiapine
  10 uM (% Quet): 12.5 % Quet
Expanded OPCs; alamarBlue viability, NCC library compound at 0.1 µM, sheet "All Tox data"
  0.1 µM (% DMSO): 92.4 % DMSO
Expanded OPCs; alamarBlue viability, NCC library compound at 1 µM, sheet "All Tox data"
  1 µM (% DMSO): 88.4 % DMSO
Expanded OPCs; alamarBlue viability, NCC library compound at 10 µM, sheet "All Tox data"
  10 µM (% DMSO): 78.5 % DMSO

## C#CCN(C)[C@H](C)Cc1ccccc1 [Selegiline]
[1]; [2]
  activation at 2 µM: 10.1%
[1]; [3]
  activation at 10 µM: 19.7%
[1]; [4]
  activation at 2 µM: 0.64%
[1]; [5]
  activation at 10 µM: 11.2%
Expanded OPCs; [6]
  viability at 0.1 µM: 85.8%
Expanded OPCs; [7]
  viability at 1 µM: 88.8%
Expanded OPCs; [8]
  viability at 10 µM: 91.2%
Expanded OPCs; [9]
  0.1 µM (% DMSO): 101.6 % DMSO
Expanded OPCs; [10]
  1 µM (% DMSO): 93.8 % DMSO
Expanded OPCs; [11]
  10 µM (% DMSO): 94.0 % DMSO

## CN[C@H]1CC[C@@H](c2ccc(Cl)c(Cl)c2)c2ccccc21 [Sertraline]
[1]; 0.08 uM test compound, relative to quetiapine, read-out: OL differentiation, 0.08 uM (% Quet)
  activation at 0.08 µM: 0.9%
[1]; 0.4 uM test compound, relative to quetiapine, read-out: OL differentiation, 0.4 uM (% Quet)
  activation at 0.4 µM: -63.6%
[1]; test compound at 0.08 uM, MBP expression relative to quetiapine, NCC library screen, read-out: 0.08 uM (% Quet)
  activation at 0.08 µM: -13.2%
[1]; [12]
  activation at 0.4 µM: -134%
Expanded OPCs; [6]
  viability at 0.1 µM: 74.6%
Expanded OPCs; [7]
  viability at 1 µM: 24.6%
Expanded OPCs; [8]
  viability at 10 µM: 11.1%
Expanded OPCs; [9]
  0.1 µM (% DMSO): 52.7 % DMSO
Expanded OPCs; [10]
  1 µM (% DMSO): 20.4 % DMSO
Expanded OPCs; [11]
  10 µM (% DMSO): 7.7 % DMSO

## CCC(C)(C)C(=O)O[C@H]1C[C@@H](C)C=C2C=C[C@H](C)[C@H](CC[C@@H]3C[C@@H](O)CC(=O)O3)[C@H]21 [Simvastatin]
[1]; [12]
  activation at 0.4 µM: -105%
[1]; [13]
  activation at 2 µM: -140%
Expanded OPCs; [9]
  0.1 µM (% DMSO): 157.3 % DMSO
Expanded OPCs; [10]
  1 µM (% DMSO): 86.5 % DMSO
Expanded OPCs; [11]
  10 µM (% DMSO): 25.7 % DMSO

## CC(C)NCC(O)c1ccc(NS(C)(=O)=O)cc1 (stereo not shown) [Sotalol]
[1]; [2]
  activation at 2 µM: -13.4%
[1]; [3]
  activation at 10 µM: -22.5%
Expanded OPCs; [6]
  viability at 0.1 µM: 96.2%
Expanded OPCs; [7]
  viability at 1 µM: 89.5%
Expanded OPCs; [8]
  viability at 10 µM: 107%

## CN[C@@H]1[C@H](O)[C@H](NC)[C@H]2O[C@@]3(O)C(=O)C[C@@H](C)O[C@H]3O[C@@H]2[C@H]1O [Spectinomycin]
[1]; [4]
  activation at 2 µM: 7.7%
[1]; [5]
  activation at 10 µM: 18.9%
Expanded OPCs; [9]
  0.1 µM (% DMSO): 91.8 % DMSO
Expanded OPCs; [10]
  1 µM (% DMSO): 87.7 % DMSO
Expanded OPCs; [11]
  10 µM (% DMSO): 83.6 % DMSO

## CC(=O)S[C@@H]1CC2=CC(=O)CC[C@]2(C)[C@H]2CC[C@@]3(C)[C@@H](CC[C@@]34CCC(=O)O4)[C@H]12 [Spironolactone]
[1]; [4]
  activation at 2 µM: -13%
[1]; [5]
  activation at 10 µM: -65.1%
Expanded OPCs; [9]
  0.1 µM (% DMSO): 88.4 % DMSO
Expanded OPCs; [10]
  1 µM (% DMSO): 80.5 % DMSO
Expanded OPCs; [11]
  10 µM (% DMSO): 61.8 % DMSO

## C[C@]12Cc3c[nH]nc3C[C@@H]1CC[C@@H]1[C@@H]2CC[C@@]2(C)[C@H]1CC[C@]2(C)O [Stanozolol]
[1]; test compound at 0.4 uM, NCC library screen, relative to quetiapine, read-out: 0.4 uM (% Quet)
  activation at 0.4 µM: 6.5%
[1]; [4]
  activation at 2 µM: 42.2%
Expanded OPCs; [14]
  viability at 0.1 µM: 91.1%
Expanded OPCs; [15]
  viability at 1 µM: 92.6%
Expanded OPCs; [16]
  viability at 10 µM: 61.7%

## Cc1cn([C@H]2C=C[C@@H](CO)O2)c(=O)[nH]c1=O [Stavudine]
[1]; [2]
  activation at 2 µM: -25.8%
[1]; [3]
  activation at 10 µM: -25%
[1]; [13]
  activation at 2 µM: -21.6%
[1]; test compound at 10 uM, MBP expression relative to quetiapine, NCC library screen, read-out: 10 uM (% Quet)
  activation at 10 µM: -35.1%
Expanded OPCs; [6]
  viability at 0.1 µM: 110%
Expanded OPCs; [7]
  viability at 1 µM: 91.5%
Expanded OPCs; [8]
  viability at 10 µM: 107%
Expanded OPCs; [9]
  0.1 µM (% DMSO): 90.1 % DMSO
Expanded OPCs; [10]
  1 µM (% DMSO): 97.1 % DMSO
Expanded OPCs; [11]
  10 µM (% DMSO): 101.2 % DMSO

## CC(C)(C)C(O)/C=C/c1ccc2c(c1)OCO2 (stereo not shown) [Stiripentol]
[1]; [4]
  activation at 2 µM: -12%
[1]; [5]
  activation at 10 µM: -14.2%
Expanded OPCs; [14]
  viability at 0.1 µM: 85.4%
Expanded OPCs; [15]
  viability at 1 µM: 89.5%
Expanded OPCs; [16]
  viability at 10 µM: 83.7%

## CC(=O)NS(=O)(=O)c1ccc(N)cc1 [Sulfacetamide]
[1]; [4]
  activation at 2 µM: 11.2%
[1]; [5]
  activation at 10 µM: 0.16%
Expanded OPCs; [14]
  viability at 0.1 µM: 90.1%
Expanded OPCs; [15]
  viability at 1 µM: 91.6%
Expanded OPCs; [16]
  viability at 10 µM: 89.7%

## O=C(O)c1cc(/N=N/c2ccc(S(=O)(=O)Nc3ccccn3)cc2)ccc1O [Sulfasalazine]
[1]; [2]
  activation at 2 µM: 15.1%
[1]; [3]
  activation at 10 µM: -0.6%
Expanded OPCs; [6]
  viability at 0.1 µM: 89%
Expanded OPCs; [7]
  viability at 1 µM: 89.8%
Expanded OPCs; [8]
  viability at 10 µM: 94.9%

## O=C1C(CC[S+]([O-])c2ccccc2)C(=O)N(c2ccccc2)N1c1ccccc1 (stereo not shown) [Sulfinpyrazone]
[1]; [4]
  activation at 2 µM: -3.8%
[1]; [5]
  activation at 10 µM: -6.8%
Expanded OPCs; [14]
  viability at 0.1 µM: 88.8%
Expanded OPCs; [15]
  viability at 1 µM: 92.9%
Expanded OPCs; [16]
  viability at 10 µM: 88.2%

## Cc1noc(NS(=O)(=O)c2ccc(N)cc2)c1C [Sulfisoxazole]
[1]; [4]
  activation at 2 µM: -3.5%
[1]; [5]
  activation at 10 µM: 7.6%
Expanded OPCs; [14]
  viability at 0.1 µM: 93.5%
Expanded OPCs; [15]
  viability at 1 µM: 99.1%
Expanded OPCs; [16]
  viability at 10 µM: 103%

## CC1=C(CC(=O)O)c2cc(F)ccc2/C1=C\c1ccc([S+](C)[O-])cc1 (stereo not shown) [Sulindac]
[1]; [4]
  activation at 2 µM: 0.6%
[1]; [5]
  activation at 10 µM: -11.2%
Expanded OPCs; [9]
  0.1 µM (% DMSO): 90.8 % DMSO
Expanded OPCs; [10]
  1 µM (% DMSO): 94.4 % DMSO
Expanded OPCs; [11]
  10 µM (% DMSO): 90.3 % DMSO

## CCN1CCCC1CNC(=O)c1cc(S(N)(=O)=O)ccc1OC (stereo not shown) [Sulpiride]
[1]; [2]
  activation at 2 µM: -9.7%
[1]; [3]
  activation at 10 µM: 6%
Expanded OPCs; [6]
  viability at 0.1 µM: 105%
Expanded OPCs; [7]
  viability at 1 µM: 116%
Expanded OPCs; [8]
  viability at 10 µM: 115%

## CCN1CCCC1CNC(=O)c1cc(S(=O)(=O)CC)ccc1OC (stereo not shown) [Sultopride]
[1]; [2]
  activation at 2 µM: 7.7%
[1]; [3]
  activation at 10 µM: 0%
Expanded OPCs; [6]
  viability at 0.1 µM: 93.7%
Expanded OPCs; [7]
  viability at 1 µM: 89.8%
Expanded OPCs; [8]
  viability at 10 µM: 96.2%

## CNS(=O)(=O)Cc1ccc2[nH]cc(CCN(C)C)c2c1 [Sumatriptan]
[1]; [2]
  activation at 2 µM: 69.1%
[1]; [3]
  activation at 10 µM: 84.6%
Expanded OPCs; [14]
  viability at 0.1 µM: 95.1%
Expanded OPCs; [15]
  viability at 1 µM: 98.2%
Expanded OPCs; [16]
  viability at 10 µM: 92.1%

## CNCC(O)c1ccc(O)cc1 (stereo not shown) [Synephrine]
[1]; [4]
  activation at 2 µM: -7.3%
[1]; [5]
  activation at 10 µM: 2.8%
Expanded OPCs; [14]
  viability at 0.1 µM: 85.8%
Expanded OPCs; [15]
  viability at 1 µM: 94.3%
Expanded OPCs; [16]
  viability at 10 µM: 93.4%

## Nc1c2c(nc3ccccc13)CCCC2 [Tacrine]
[1]; [2]
  activation at 2 µM: -10.2%
[1]; [3]
  activation at 10 µM: 2.8%
Expanded OPCs; [6]
  viability at 0.1 µM: 80.5%
Expanded OPCs; [7]
  viability at 1 µM: 80%
Expanded OPCs; [8]
  viability at 10 µM: 77.8%
